In ChEMBL document CHEMBL1201862, “PubChem BioAssay data set” (2004):
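Test compounds were applied to cells in 96-well plates for 48 hours at 5 doses. GI50: concentration for 50% inhibition of growth.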 Activity calls are given as the source filed them. Rule as the data show it: active = GI50 up to about 1.1 µM and inactive = higher.

Assays:
Assay in all cases: DTP human tumour cell line panel, 48 h
LXFL 529 = test system: LXFL 529
OVCAR-5 = test system: OVCAR-5
SW-620 = test system: SW-620
786-0 = test system: 786-0
RXF 393 = test system: RXF 393
MOLT-4 = test system: MOLT-4
CAKI-1 = test system: CAKI-1
A549 = test system: A549
UACC-62 = test system: UACC-62
SK-OV-3 = test system: SK-OV-3
OVCAR-8 = test system: OVCAR-8
SF-295 = test system: SF-295
HCT-15 = test system: HCT-15
SN12C = test system: SN12C
SF-268 = test system: SF-268
CCRF-CEM = test system: CCRF-CEM
HT-29 = test system: HT-29
SK-MEL-5 = test system: SK-MEL-5

Compound | GI50 (LXFL 529) | GI50 (OVCAR-5) | GI50 (SW-620) | GI50 (786-0) | GI50 (RXF 393) | GI50 (MOLT-4) | GI50 (CAKI-1) | GI50 (A549) | GI50 (UACC-62) | GI50 (SK-OV-3) | GI50 (OVCAR-8) | GI50 (SF-295) | GI50 (HCT-15) [µM] | GI50 (SN12C) | GI50 (SF-268) | GI50 (CCRF-CEM) | GI50 (HT-29) | GI50 (SK-MEL-5)
O=C(/C=C/c1ccccc1Cl)c1ccc(Cl)c(Cl)c1 | 16.1 µM (inactive) | 17.6 µM (inactive) | 15.1 µM (inactive) | 16.3 µM (inactive) | 13.1 µM (inactive) | 21.3 µM (inactive) | 15.4 µM (inactive) | 19.5 µM (inactive) | 19.1 µM (inactive) | 24.5 µM (inactive) | 17.7 µM (inactive) | 17.3 µM (inactive) | 15.7 | > 100 µM (inactive) | 18.3 µM (inactive) | 26.4 µM (inactive) | 19.8 µM (inactive) | 18.9 µM (inactive)
CC(=O)CC(=O)OC1CC(C)CCC1C(C)C (stereo not drawn) | 89.5 µM (inactive) | > 100 µM (inactive) | 43.1 µM (inactive) | > 100 µM (inactive) | 72.4 µM (inactive) | 17.3 µM (inactive) | > 100 µM (inactive) | 35.3 µM (inactive) | 69.2 µM (inactive) | > 100 µM (inactive) | 72.8 µM (inactive) | 80.7 µM (inactive) | 38.7 | > 100 µM (inactive) | 45.7 µM (inactive) | 11.7 µM (inactive) | 30 µM (inactive) | 42.2 µM (inactive)
COc1ccc2c(c1)CCC1C3(CCCC21C)OCCO3 (stereo not drawn) | 18.2 µM (inactive) | 27 µM (inactive) | 33.9 µM (inactive) | 18.5 µM (inactive) | 13.7 µM (inactive) | 14.4 µM (inactive) | 34.6 µM (inactive) | 26.9 µM (inactive) | 15.4 µM (inactive) | 24 µM (inactive) | 17.5 µM (inactive) | 19.3 µM (inactive) | 17.1 | 16.3 µM (inactive) | 6.9 µM (inactive) | 16.9 µM (inactive) | 17.5 µM (inactive) | 15.6 µM (inactive)
C[Si](C)(C)c1ccc(-c2sc(-c3ccc([Si](C)(C)C)s3)c3c2C[Si]2(C3)Cc3c(-c4ccc([Si](C)(C)C)s4)sc(-c4ccc([Si](C)(C)C)s4)c3C2)s1 | > 100 µM (inactive) | > 100 µM (inactive) | > 100 µM (inactive) | > 100 µM (inactive) | > 100 µM (inactive) | > 100 µM (inactive) | > 100 µM (inactive) | > 100 µM (inactive) | > 100 µM (inactive) | > 100 µM (inactive) | > 100 µM (inactive) | > 100 µM (inactive) | > 100 | > 100 µM (inactive) | > 100 µM (inactive) | > 100 µM (inactive) | > 100 µM (inactive) | > 100 µM (inactive)
O=C(CC1(O)C(=O)Nc2c(Cl)cc(Cl)cc21)c1ccc(Br)cc1 (stereo not drawn) | > 37.9 µM (inactive) | 17.2 µM (inactive) | 26.9 µM (inactive) | 13.2 µM (inactive) | 16 µM (inactive) | 22.1 µM (inactive) | 16.1 µM (inactive) | 20.7 µM (inactive) | 9.08 µM (inactive) | 27 µM (inactive) | 33.8 µM (inactive) | 29.5 µM (inactive) | 35 | 33.1 µM (inactive) | 16.4 µM (inactive) | 14.9 µM (inactive) | 37.7 µM (inactive) | 16.9 µM (inactive)
COC(=O)C1C(=O)NC2(C)CC1c1ccccc1O2 (stereo not drawn) | > 100 µM (inactive) | > 100 µM (inactive) | > 100 µM (inactive) | > 100 µM (inactive) | > 100 µM (inactive) | > 100 µM (inactive) | > 100 µM (inactive) | > 100 µM (inactive) | > 100 µM (inactive) | > 100 µM (inactive) | > 100 µM (inactive) | > 100 µM (inactive) | > 100 | > 100 µM (inactive) | > 100 µM (inactive) | > 100 µM (inactive) | > 100 µM (inactive) | > 100 µM (inactive)
